The assay concerns the target T1, Complement factor B [470-764] (UniProt P00751).
T1 construct: 470-764
As to the kind of experiment: Factor B Binding Assay by TR-FRET. Here is the method:
Table 1: Factor B binding affinity of each compound tested was determined using a time-resolved fluorescence resonance energy transfer (TR-FRET) technology. 10 nM recombinant his-tagged Factor B catalytic domain, varying concentrations of inhibitors, 4 nM LANCE Eu-W1024 Anti-6×His Antibody and 100 nM TR-FRET_tool2 tracer was incubated in 1× Kinase Buffer A for 1 h. Measurement was performed in a reaction volume of 15 μL by adding 5 μL of the test compound, 5 μL of Factor B/antibody mixture and 5 μL of tracer into white opaque 384-well assay plates. The TR-FRET signal was read on a plate reader with an excitation wavelength of 340 nm and detection wavelengths of 615 and 665 nm.
For orientation: In TR-FRET formats the signal depends on donor and acceptor labels being close together.

SMILES strings stand for the structures.

T1 sequence (P00751 470-764): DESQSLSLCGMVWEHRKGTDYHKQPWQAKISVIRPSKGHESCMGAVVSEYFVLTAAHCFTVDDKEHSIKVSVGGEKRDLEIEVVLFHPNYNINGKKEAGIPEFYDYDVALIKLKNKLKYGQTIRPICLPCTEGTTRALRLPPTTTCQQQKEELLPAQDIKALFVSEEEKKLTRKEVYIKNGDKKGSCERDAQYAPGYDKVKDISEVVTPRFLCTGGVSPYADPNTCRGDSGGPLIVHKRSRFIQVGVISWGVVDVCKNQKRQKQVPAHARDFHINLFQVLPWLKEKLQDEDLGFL

In general, IC50 refers to the point on the concentration scale where inhibition reaches its midpoint. High values mean a need for much substance, low ones inhibition by little substance. Regarding `COc1cc(C)c2[nH]ccc2c1CN1CC2CCC2C1c1ccc(C(=O)O)cc1` (stereo unspecified) [US20250243186, Example 22], the IC50 stood at 45 nM.
